The values below are quoted from earlier work in article PMC11952222, “Development and comparison of single FLT3-inhibitors to dual FLT3/TAF1-inhibitors as an anti-leukemic approach” (PLOS One, 2025).

The subject of this data set is TAF1. The note with it: reference compounds; read-out: TAF1 IC50, literature-reported; cited from earlier work.

What is called IC50 is the concentration that gives 50% inhibition. As for `Cc1cc2c(cc1N1C(=O)c3cccc4c(CCCO)ccc(c34)C1=O)n(C)c(=O)n2C` [BAY299], the IC50 is 8 nM.
